Results as given in US20120029068A1, “TRANSDERMAL FLUID” (MALAYSIAN PALM OIL BROARD A/K/A MPOB, priority 2007, published 2012).
Like-named read-outs stand apart in the source and are kept apart here.

Key:
[1] = tested on: MCF-7; settings: absence and presence of estradiol and tamoxifen; cited from earlier work
[2] = tested on: ZR-75-1 cells; settings: absence and presence of estradiol and tamoxifen; cited from earlier work
[3] = tested on: human breast cancer cells; settings: cited from earlier work; for anti-proliferative and pro-apoptotic effects / inhibition of breast cancer cell growth: human breast cancer cells
[4] = rats fed 50 mg of α-T3 or α-T, α-T3 vs α-T; cited from earlier work
[5] = tested on: MCF-7 cells; settings: α-T combined with tamoxifen; cited from earlier work
[6] = tested on: MDA-MB-231 cells; settings: cited from earlier work
[7] = tested on: prostate cancer cell; settings: comparison between homologues; cited from earlier work
[8] = tested on: IFN-γ; test: IFN-γ ELISA on splenocytes of mice immunized with OVA; type: in vivo, BALB/c mice; settings: transdermal δ-T3 vs control
Procedure: (§1) The mice were further immunized subcutaneously with ovalbumin (50 μg) adjuvanted in alum. Interferon-gamma (IFN-γ) was measured upon antigen specific stimulation of OVA.
The experimental mice were sacrificed using ether. Spleen was removed aseptically into RPMI complete medium and single cell suspension was made by teasing out the splenocytes from the spleen capsule. Before culture, cells were stained with 0.4% Trypan Blue Stain (GIBCO, Invitrogen Corp, New Zealand) and cell viability count was performed using a haemocytometer. The spleen cell suspension was diluted to give a 5×10^6 cells/ml solution and Concanavalin A (Sigma-Aldrich Inc, St Louis Mo., USA) was added at a final concentration of 25 μg/ml. 200 μl of this suspension was plated on to 96-well flat-bottomed tissue culture plates (Becton Dickinson, USA) and left in a humidified CO2 incubator at 37° C. for 72 hours. At the end of each incubation period, the plate was removed from the incubator and stored at −70° C. The plates were thawed prior to performing ELISA.
The tissue culture plates that were frozen at […] were thawed. […] The supernatant was analysed by ELISA to quantify the amount of IFN-γ and IL-4 produced following the in vitro stimulation with Concanavalin A. ELISA was performed using ELISA kits for mouse IFN-γ and IL-4 (BD, Pharmingen) as recommended by the manufacturers.

[9] = tested on: natural killer cells (NK); test: Single colour flow cytometry with leukocyte marker antibodies, NK cells; type: in vivo, BALB/c mice; settings: whole blood, δ-tocotrienol group compared to control
Procedure: as §1
(§2) Fluorescein isothiocyanate (FITC) or Phycoerythrin-labeled antibodies were diluted by adding 20 μl of antibody to 50 μl of Staining Buffer in separate tubes. 100 μl of whole blood from mouse was added to each tube and mixed gently. The samples were then incubated for one hour at room temperature in the dark. After incubation, 2 ml of RBC Lysis Buffer was added into each tube and mixed gently. Samples were then centrifuged at 400 g for 5 minutes at room temperature. A wash step was carried out by adding 2 ml of Staining Buffer and samples were again centrifuged at 400 g for 5 minutes at room temperature. Supernatant was removed and 200 μl Staining Buffer was added into each tube followed by 204 μl of 4% Formalin. Samples were analysed using Flow Cytometer.

[10] = tested on: B-lymphocytes; test: Single colour flow cytometry with leukocyte marker antibodies, B-lymphocytes; type: in vivo, BALB/c mice; settings: whole blood, δ-tocotrienol group compared to control
Procedure: as §1, §2

[11] = tested on: Splenocytes; test: MTT viability assay of splenocytes; type: cell-based, BALB/c mice; settings: splenocytes of treated mice, addition of concanavalin A or OVA
Procedure: Viability of the cells was measured by the MTT assay. In this assay MTT is converted to a blue formazan product by dehydrogenases that are active in living cells. Splenocytes were seeded with concanavalin A or OVA in a 96 well plate in a total volume of 200 μl of medium. MTT (25 μl of 5 mg/ml) was added to each well. After 4 hours, 100 μl of extraction buffer consisting of 20% SDS dissolved in a 50% dimethyl formamide/50% water solution at pH 4.0 was added. The blue colour formed was measured at 590 nm.
The MTT assay uses the principle whereby cell growth or cell death is indicated by the conversion or lack of conversion of the tetrazolium salt to the coloured product, formazan, the concentration of which can be measured spectrophotometrically.

[12] = mouse, in vivo
Procedure: BALB/c mice were divided into 2 groups. Control group only received ethanol the carrier whilst the experimental group was treated with 1 mg of δ-tocotrienols daily for 4 weeks. It was applied on the back to examine subcutaneous absorption.
Female BALB/c mice 3 to 4 weeks old were obtained from the Animal Breeding Unit, Institute for Medical Research (IMR), Kuala Lumpur, Malaysia. […] The control animals were treated with ethanol alone whilst the experimental groups were applied daily with 0.5 ml of a 20 mg/ml concentration to deliver 1 mg of δ-tocotrienol.
The tocopherols and tocotrienols were analysed by HPLC. The system used was a Shimadzu LC-10AT HPLC coupled with a Shimadzu Model RF-10AXL fluorescence spectrophotometer, Shimadzu Class VP data acquisition software, and silica column (YMC A-012/150×6 mm I.D, 5 μm). The eluting solvent was hexane/isopropyl alcohol (99.5/0.5 v/v) at a flow rate of 2.0 ml/min. The detector was set at excitation wavelength of 295 nm and emission wavelength of 325 nm. 500 mg adipose tissue was homogenized with 4:1:1 mixture of hexane:ethanol and 0.9% sodium chloride at 10000 rpm for 5 minutes. The homogenate was then centrifuged at 2000 rpm for 5 minutes. The resulting supernatant was filtered and evaporated using a rotary evaporator. A known amount of lipid sample was dissolved in a 10 ml volumetric flask using the eluting solvent and 10 μl of the solution was injected into the HPLC system. A standard solution of a mixture of α, γ, and δ-tocotrienols was also injected accordingly. Quantification of the major components of vitamin E was carried out by comparing the peak areas of the components with those of the standards.

CC(C)=CCC/C(C)=C/CC/C(C)=C/CC[C@]1(C)CCc2c(C)c(O)c(C)c(C)c2O1 [α-T3, α-tocotrienol]
proliferation of MCF-7 [1]: inhibited proliferation | proliferation of ZR-75-1 cells [2]: inhibited proliferation | anti-proliferative and pro-apoptotic effects / inhibition of breast cancer cell growth [3]: potent anti-proliferative and pro-apoptotic effects | concentration in adipose tissue and skin [4]: significantly higher

Cc1c(C)c2c(c(C)c1O)CC[C@@](C)(CCC[C@H](C)CCC[C@H](C)CCCC(C)C)O2 [α-T, α-tocopherol]
increase of the IC50 for tamoxifen [5]: more than 1000 fold | effect on growth inhibitory effects of tamoxifen [6]: completely blocked | anti-proliferative and pro-apoptotic effects / inhibition of breast cancer cell growth [3]: no effect

CC(C)=CCC/C(C)=C/CC/C(C)=C/CC[C@]1(C)CCc2cc(O)c(C)c(C)c2O1 [γ-T3, γ-tocotrienol]
proliferation of MCF-7 [1]: inhibited proliferation | proliferation of ZR-75-1 cells [2]: inhibited proliferation | anti-proliferative and pro-apoptotic effects / inhibition of breast cancer cell growth [3]: potent anti-proliferative and pro-apoptotic effects | effect on prostate cancer cell growth [7]: greater anti-proliferative effects than γ-T

Cc1c(O)cc2c(c1C)O[C@](C)(CCC[C@H](C)CCC[C@H](C)CCCC(C)C)CC2 [γ-T, γ-tocopherol, reference compound]
effect on prostate cancer cell growth [7]: much stronger inhibitory effect

CC(C)=CCC/C(C)=C/CC/C(C)=C/CC[C@]1(C)CCc2cc(O)cc(C)c2O1 [δ-T3, δ-tocotrienol]
IFN-γ in splenocytes [8]: significantly higher | IFN-γ in splenocytes ([8]; listed as δ-tocotrienols): significant increase | natural killer cells [9]: significantly increased | natural killer cells ([9]; listed as δ-tocotrienols): increase | B-lymphocytes [10]: significantly increased | B-lymphocytes ([10]; listed as δ-tocotrienols): increase | splenocyte growth (MTT OD reading) [11]: grew normally | changes in tocotrienol levels in blood, spleen and liver [12]: only seen at week 4 | concentration in adipose and subcutaneous fat tissue at week 3 [12]: drop in concentration | time of optimum concentration in breast and abdominal adipose and subcutaneous fat tissue [12]: 2 week | δ-T3 in breast and abdominal adipose and subcutaneous fat tissue [12]: significant increases | proliferation of MCF-7 [1]: inhibited proliferation | proliferation of ZR-75-1 cells [2]: inhibited proliferation | synergistic efficacy with Tamoxifen ([3]; breast cancer): highest synergistic efficacy | anti-proliferative and pro-apoptotic effects / inhibition of breast cancer cell growth [3]: potent anti-proliferative and pro-apoptotic effects | anti-proliferative and pro-apoptotic effects / inhibition of breast cancer cell growth ([3]; listed as δ-tocotrienol): most effective inhibitor
